The values that follow are results of earlier work, collected in US20040176378A1, “Compositions of a cyclooxygenase-2 selective inhibitor and an amphetamine for the treatment of reduced blood flow to the central nervous system” (Pharmacia Corporation, priority 2003, published 2004).

Each structure is given as a SMILES string.

In one series the test system is human stroke victims. As to conditions: coupled with physical therapy, compared to stroke victims receiving only physical therapy.

On to `CC(N)Cc1ccccc1` (centres unmarked) [amphetamine], for which, in the series with human stroke victims, the motor recovery result is “accelerated motor recovery”. Also, the alternative circuit activation result in the series with infarcted rats is given as “promoted alternative circuit activation”.
